The source of these data is US8507411B2, “Neoglycorandomization and digitoxin analogs” (priority 2004, dated 2013).

Where two headings read alike, the source gives them in different places.

A word on the IC50: it is the concentration that inhibits the measured activity by half.

Data set [1] concerns MCF7. The data set can be described thus: High-throughput calcein AM cytotoxicity assay, MCF7. It is filed as cell-based, human. Particulars: read-out: IC50, MCF7. The text has this:
(§1) Standard errors are depicted with error bars.

Data set [2] concerns HCT-116. The data set can be described thus: High-throughput calcein AM cytotoxicity assay, HCT-116. It is filed as cell-based, human.
Text: as §1

For data set [3], the system named is Du145. The data set can be described thus: High-throughput calcein AM cytotoxicity assay, Du145. It is filed as cell-based, human. Particulars: read-out: IC50, Du145.
Text: as §1

The test system of data set [4] is nine human cancer cell lines and a mouse mammary normal epithelial control line. The data set can be described thus: High-throughput calcein AM cytotoxicity assay, whole cell line panel. The text has this: In the assay, live cells were distinguished by the presence of a ubiquitous intracellular enzymatic activity which converts the non-fluorescent cell-permeable molecule calcein AM to the intensely fluorescent molecule calcein, which is retained within live cells. The IC50 value for each library member represents at least six replicates of dose-response experiments conducted over five concentrations using two-fold dilutions. […] Standard errors are depicted with error bars. Numerical values and corresponding error values can be found in Table 4. Du145: […]; MCF7: human breast carcinoma; HCT-116: human colon carcinoma, Hep3B: human liver carcinoma; SF-268: human CNS glioblastoma; SK-OV-3: human ovary adenocarcinoma; NCI-H460: human lung carcinoma; A549: human lung adenocarcinoma; NCI/ADR-RES: human breast carcinoma; NmuMG: mouse mammary normal epithelial.
Cell Culture: All cell lines except NmuMG were maintained in RPMI 1640 medium from InVitrogen (Cat No. 11875-085) supplemented with 10% w/v fetal bovine serum (FBS) from ICN (Cat No. 2916154) and penicillin-streptomycin (PS) (100 U/mL and 100 μg/mL) from InVitrogen (Cat No. 15140-122). NmuMG cells were maintained in DMEM medium from InVitrogen (Cat No. 11965-084) supplemented with 10% w/v fetal bovine serum (FBS) from ICN (Cat No. 2916154), 10 μg/ml insulin (InVitrogen Cat No 12585-014), and penicillin-streptomycin (PS) (100 U/mL and 100 μg/mL) from InVitrogen (Cat No. 15140-122). Cells were harvested by trypsinization using 0.25% w/v trypsin and 0.1% w/v EDTA from InVitrogen (Cat No. 15-050-057) and then counted in a hemocytometer in duplicate with better than 10% agreement in field counts. Cells were plated at a cell density of 10,000-15,000 cells/well of each Corning Costar 96-well black tissue culture treated microtiter plate (Fisher Cat No. 07-200-627). Cells were grown for 1 h at 37° C., with 5% CO2 in a humidified incubator to allow cell attachment to occur before compound addition.
Library Member Handling and Preparation for Cytotoxicity Assays: Library members were stored at −20° C. under dessicating conditions before the assay. Library member stocks (100×) were prepared in Corning Costar polypropylene 96-well V-bottom polypropylene microtiter plates (Fisher Cat No. 07-200-695). Five serial 1:2 dilutions were made with anhydrous DMSO at 100× the final concentration used in the assay.
Library Member Addition: The library member-containing plates were diluted 1:10 with complete cell culture media. The 10× stocks (10 μL) were added to the attached cells using a Biomek FX liquid handler (Beckman-Coulter). Library member stocks (10 μL) were added to 90 μL of cells in each plate to insure full mixing of stocks with culture media using a Beckman FX liquid handler with 96-well head.
Determination of Cytotoxicity: Cells were incubated with the library members for 72 h before fluorescence reading. Test plates were removed from the incubator and washed 1× in sterile PBS to remove serum containing calcium esterases. Calcein AM reagent (30 μL, […]) was added and the cells were incubated for 30 min at 37° C. Plates were read for emission using a fluorescein filter (excitation 485 nm, emission 535 nm).
IC50 Calculation: For each library member, at least six dose response experiments were conducted. […] To calculate IC50, percent inhibitions were plotted as a function of log [concentration] and then fit to a four-parameter logistic model that allowed for a variable Hill slope using XLfit 4.1.
Cytotoxicity Assays. All cell lines except NmuMG were maintained in RPMI 1640 medium supplemented with 10% w/v fetal bovine serum (FBS) and penicillin-streptomycin (PS) (100 U/mL and 100 μg/mL).

Data set [5] deals with SKOV-3. The data set can be described thus: Cell titer-glo cytotoxicity assay, SKOV-3. In kind it is cell-based, human. The text has this:
(§2) FIG. 7 is a graphical summary of the results of the IC50 data from cytotoxicity assays. […] In the assay, live cells are quantified by measuring the luminescent signal resulting from the reaction between cellular ATP and luciferin to form oxyluciferin. The IC50 value for each compound represents at least four replicates of dose-response experiments conducted over six concentrations at two-fold dilutions.
(§3) The anticancer activities of ten panel analogues (3a-c,e,f and 4a-c,e,f) and digitoxin (1) were assessed using a high-throughput cytotoxicity assay on four human cancer cell lines, (FIG. 7) representing lung, colorectal, and ovarian carcinomas, as well as NCI/ADR-RES, a drug-resistant ovarian carcinoma line (For years, NCI/ADR-RES cells have been misidentified as drug-resistant MCF-7 breast adenocarcinoma cells, but recently this line has been shown definitively to be a drug-resistant line derived from OVCAR-8 ovarian adenocarcinoma cells. Liscovitch, M. et al., Cancer Lett. (2007) 245, 350-352.
All cell lines were maintained as previously reported (Langenhan, J. M. et al., Proc. Natl. Acad. Sci. (2005) 102, 12305-12310.) Cells were harvested by trypsinization using 0.25% trypsin and 0.1% EDTA and then counted in a Cellometer Auto T4 cell counter (Nexcelom, inc), before dilution for assay plating. Cell plating, compound handling and assay set up were performed as previously reported^1 except for the cells were plated in 50 μL volumes in 384 well clear bottom, tissue culture plates (Corning-Costar, Inc). Compounds were added from the 384-well compound stock plates at a 1:100 dilution using a Biomek FX liquid handler equipped with a 384 channel head (Beckman Coulter, Inc.). Cell titer-glo reagent (15 μL) (Promega Corporation, Inc.) was added and incubated for 10 min at room temperature with gentle agitation to lyse the cells. Each plate was read for luminescence. […] IC50 values were determined using XLFit 4.0 as previously reported (see Table 7).
A general note: In ATP-based viability assays light output follows the ATP content of the culture.

Data set [6] deals with HT-29. The data set can be described thus: Cell titer-glo cytotoxicity assay, HT-29. In kind it is cell-based, human. Particulars: HT-29, Cell titer-glo.
Text: as §2, §3
(§4) All cell lines were maintained as previously reported (Langenhan, J. M. et al., Proc. Natl. Acad. Sci. (2005) 102, 12305-12310.) Cells were harvested by trypsinization using 0.25% trypsin and 0.1% EDTA and then counted in a Cellometer Auto T4 cell counter (Nexcelom, inc), before dilution for assay plating. […] Each plate was read for luminescence. […]

The subject of data set [7] is NCI-H460. The data set can be described thus: Cell titer-glo cytotoxicity assay, NCI-H460. It is filed as cell-based, human.
Text: as §2, §3, §4

Where [8] appears, read: HCT-116 cells, read-out: IC50, HCT-116.
[9] abbreviates: SKOV-3, Cell titer-glo, read-out: IC50.

Take `CON([C@H]1CC[C@@]2(C)[C@H](CC[C@@H]3[C@@H]2CC[C@]2(C)[C@@H](C4=CC(=O)OC4)CC[C@]32O)C1)[C@H]1OC[C@H](O)[C@H](O)[C@@H]1O` [5β, L-riboside]: the IC50 in data set [1] (MCF7 cells) is 190 nM; in data set [2] (HCT-116, 72 h, calcein AM, read-out: IC50), 18 ± 2 nM; in data set [2] (setting [8]), 18 nM; in data set [3] (Du145 cells), 300 nM; in data set [4] (range over cell lines), 18 to 59 nM; in data set [5] (setting [9]) it was over 1000 nM. This compound also yielded an IC50 in data set [6] of 80 nM.

Take `CON([C@H]1CC[C@@]2(C)[C@H](CC[C@@H]3[C@@H]2CC[C@]2(C)[C@@H](C4=CC(=O)OC4)CC[C@]32O)C1)[C@@H]1O[C@H](CO)[C@@H](O)[C@H](O)[C@@H]1O` [27β, D-mannoside]: the half-maximal inhibitory concentration (IC50) was 1700 nM in data set [1] (MCF7 cells), 800 nM in data set [2] (setting [8]) and 1300 nM in data set [3] (Du145 cells).

With `CON([C@H]1CC[C@@]2(C)[C@H](CC[C@@H]3[C@@H]2CC[C@]2(C)[C@@H](C4=CC(=O)OC4)CC[C@]32O)C1)[C@H]1OC[C@H](O)[C@@H](O)[C@@H]1O` [23β, L-xyloside], the half-inhibitory concentration (IC50) in data set [7] is 55 nM; in data set [1] (MCF7 cells) it was 230 nM; in data set [2] (setting [8]), 100 nM; in data set [3] (Du145 cells) it was 620 nM; in data set [5] (setting [9]), over 1000 nM; in data set [6], 66 nM. In addition, the “cytotoxicity (in words)” value in data set [4] (cell line panel, 72 h, calcein AM) is listed as “significantly more potent than digitoxin against some cell lines”.

Consider `C[C@H]1O[C@@H](O[C@H]2[C@@H](O)C[C@H](O[C@H]3[C@@H](O)C[C@H](O[C@H]4CC[C@@]5(C)[C@H](CC[C@@H]6[C@@H]5CC[C@]5(C)[C@@H](C7=CC(=O)OC7)CC[C@]65O)C4)O[C@@H]3C)O[C@@H]2C)C[C@H](O)[C@@H]1O` [digitoxin], for which the IC50 in data set [1] (Homo sapiens, MCF7, MCF7 cells) is 320 nM; in data set [2] (Homo sapiens, HCT-116, HCT-116 cells, read-out: IC50, HCT-116), 170 nM; in data set [3] (Homo sapiens, DU-145, Du145 cells), 260 nM; in data set [4] (Homo sapiens, read-out: average IC50) it was about 440 nM; in data set [5] (Homo sapiens, SK-OV-3), over 1000 nM.
